The NIST ThermoML archive (doi:10.1021/je5009334)
Numbers after ± are expanded uncertainties.

Test: xn = mol fraction of the nth substance listed
Conditions: 101 kPa, Liquid; for speed of sound: Sing-around technique in a fixed-path interferometer; for mass density: Vibrating tube method

CC(O)CCO (stereo not given) [1,3-butanediol] + CCC(O)CO
Conditions | mass density [kg/m3] | speed of sound [m/s]
298.15 K, x2 = 0 | 1001.82 ± 0.84 | 1527.8 ± 2.1
298.15 K, x2 = 0.1 | 1001.83 ± 0.76 | 1523.2 ± 2.1
298.15 K, x2 = 0.2 | 1001.78 ± 0.69 | 1517.9 ± 2
298.15 K, x2 = 0.3 | 1001.74 ± 0.61 | 1512.7 ± 1.9
298.15 K, x2 = 0.4 | 1001.61 ± 0.55 | 1507.1 ± 1.8
298.15 K, x2 = 0.5 | 1001.24 ± 0.48 | 1498.9 ± 1.7
298.15 K, x2 = 0.6 | 1000.94 ± 0.42 | 1492.2 ± 1.6
298.15 K, x2 = 0.7 | 1000.36 ± 0.37 | 1482.6 ± 1.5
298.15 K, x2 = 0.8 | 999.812 ± 0.32 | 1473.2 ± 1.4
298.15 K, x2 = 0.9 | 999.175 ± 0.27 | 1463.1 ± 1.4
303.15 K, x2 = 0 | 998.418 ± 0.84 | 1514.1 ± 2.1
303.15 K, x2 = 0.1 | 998.382 ± 0.76 | 1509 ± 2.1
303.15 K, x2 = 0.2 | 998.283 ± 0.68 | 1503.9 ± 2
303.15 K, x2 = 0.3 | 998.2 ± 0.61 | 1498.2 ± 1.9
303.15 K, x2 = 0.4 | 998.02 ± 0.54 | 1492.5 ± 1.8
303.15 K, x2 = 0.5 | 997.617 ± 0.48 | 1484.3 ± 1.7
303.15 K, x2 = 0.6 | 997.284 ± 0.42 | 1477.4 ± 1.6
303.15 K, x2 = 0.7 | 996.675 ± 0.37 | 1468 ± 1.5
303.15 K, x2 = 0.8 | 996.1 ± 0.32 | 1458.5 ± 1.4
303.15 K, x2 = 0.9 | 995.436 ± 0.27 | 1448.3 ± 1.4
308.15 K, x2 = 0 | 994.987 ± 0.83 | 1500.2 ± 2.1
308.15 K, x2 = 0.1 | 994.902 ± 0.75 | 1494.9 ± 2.1
308.15 K, x2 = 0.2 | 994.756 ± 0.68 | 1489.6 ± 2
308.15 K, x2 = 0.3 | 994.626 ± 0.61 | 1483.8 ± 1.9
308.15 K, x2 = 0.4 | 994.403 ± 0.54 | 1478 ± 1.8
308.15 K, x2 = 0.5 | 993.965 ± 0.48 | 1469.7 ± 1.7
308.15 K, x2 = 0.6 | 993.596 ± 0.42 | 1462.7 ± 1.6
308.15 K, x2 = 0.7 | 992.955 ± 0.37 | 1453.3 ± 1.5
308.15 K, x2 = 0.8 | 992.352 ± 0.32 | 1443.8 ± 1.4
308.15 K, x2 = 0.9 | 991.664 ± 0.27 | 1433.7 ± 1.3
313.15 K, x2 = 0 | 991.528 ± 0.83 | 1486.3 ± 2.1
313.15 K, x2 = 0.1 | 991.39 ± 0.75 | 1480.8 ± 2
313.15 K, x2 = 0.2 | 991.196 ± 0.67 | 1475.3 ± 2
313.15 K, x2 = 0.3 | 991.02 ± 0.6 | 1469.3 ± 1.9
313.15 K, x2 = 0.4 | 990.753 ± 0.54 | 1463.5 ± 1.8
313.15 K, x2 = 0.5 | 990.276 ± 0.48 | 1455.1 ± 1.7
313.15 K, x2 = 0.6 | 989.874 ± 0.42 | 1448 ± 1.6
313.15 K, x2 = 0.7 | 989.201 ± 0.37 | 1438.5 ± 1.5
313.15 K, x2 = 0.8 | 988.572 ± 0.32 | 1429.1 ± 1.4
313.15 K, x2 = 0.9 | 987.858 ± 0.27 | 1419 ± 1.3
318.15 K, x2 = 0 | 988.035 ± 0.82 | 1472.3 ± 2.1
318.15 K, x2 = 0.1 | 987.845 ± 0.74 | 1466.5 ± 2
318.15 K, x2 = 0.2 | 987.595 ± 0.67 | 1460.6 ± 2
318.15 K, x2 = 0.3 | 987.379 ± 0.6 | 1454.9 ± 1.9
318.15 K, x2 = 0.4 | 987.07 ± 0.54 | 1449 ± 1.8
318.15 K, x2 = 0.5 | 986.554 ± 0.47 | 1440.5 ± 1.7
318.15 K, x2 = 0.6 | 986.118 ± 0.42 | 1433.3 ± 1.6
318.15 K, x2 = 0.7 | 985.412 ± 0.36 | 1423.9 ± 1.5
318.15 K, x2 = 0.8 | 984.756 ± 0.32 | 1414.3 ± 1.4
318.15 K, x2 = 0.9 | 984.01 ± 0.27 | 1404.4 ± 1.3
323.15 K, x2 = 0 | 984.506 ± 0.82 | 1458.3 ± 2.1
323.15 K, x2 = 0.1 | 984.262 ± 0.74 | 1452.5 ± 2
323.15 K, x2 = 0.2 | 983.961 ± 0.67 | 1446.2 ± 2
323.15 K, x2 = 0.3 | 983.701 ± 0.6 | 1440.4 ± 1.9
323.15 K, x2 = 0.4 | 983.35 ± 0.53 | 1434.3 ± 1.8
323.15 K, x2 = 0.5 | 982.795 ± 0.47 | 1425.8 ± 1.7
323.15 K, x2 = 0.6 | 982.326 ± 0.42 | 1418.6 ± 1.6
323.15 K, x2 = 0.7 | 981.586 ± 0.36 | 1409.1 ± 1.5
323.15 K, x2 = 0.8 | 980.82 ± 0.32 | 1399.6 ± 1.4
323.15 K, x2 = 0.9 | 980.034 ± 0.27 | 1390.1 ± 1.3

OCCc1ccccc1 [2-phenylethanol] + CCC(O)CO
Conditions | mass density [kg/m3] | speed of sound [m/s]
298.15 K, x1 = 0.1 | 1000.43 ± 0.23 | 1461.6 ± 1.3
298.15 K, x1 = 0.2 | 1002.46 ± 0.23 | 1471.1 ± 1.3
298.15 K, x1 = 0.3 | 1004.33 ± 0.23 | 1479.4 ± 1.3
298.15 K, x1 = 0.4 | 1006.16 ± 0.24 | 1487.8 ± 1.3
298.15 K, x1 = 0.5 | 1007.9 ± 0.24 | 1495.7 ± 1.3
298.15 K, x1 = 0.6 | 1009.62 ± 0.24 | 1502.9 ± 1.3
298.15 K, x1 = 0.7 | 1011.27 ± 0.24 | 1509.7 ± 1.3
298.15 K, x1 = 0.8 | 1012.87 ± 0.24 | 1515.6 ± 1.3
298.15 K, x1 = 0.9 | 1014.52 ± 0.24 | 1521.3 ± 1.3
298.15 K, x1 = 1 | 1016.14 ± 0.24 | 1526.1 ± 1.3
303.15 K, x1 = 0.1 | 996.641 ± 0.23 | 1446.7 ± 1.3
303.15 K, x1 = 0.2 | 998.651 ± 0.23 | 1456.2 ± 1.3
303.15 K, x1 = 0.3 | 1000.5 ± 0.23 | 1464.1 ± 1.3
303.15 K, x1 = 0.4 | 1002.32 ± 0.23 | 1472.3 ± 1.3
303.15 K, x1 = 0.5 | 1004.07 ± 0.23 | 1480 ± 1.3
303.15 K, x1 = 0.6 | 1005.79 ± 0.24 | 1487.1 ± 1.3
303.15 K, x1 = 0.7 | 1007.45 ± 0.24 | 1494.1 ± 1.3
303.15 K, x1 = 0.8 | 1009.06 ± 0.24 | 1499.7 ± 1.3
303.15 K, x1 = 0.9 | 1010.73 ± 0.24 | 1505.3 ± 1.3
303.15 K, x1 = 1 | 1012.39 ± 0.24 | 1510.5 ± 1.3
308.15 K, x1 = 0.1 | 992.825 ± 0.23 | 1431.8 ± 1.3
308.15 K, x1 = 0.2 | 994.816 ± 0.23 | 1441.2 ± 1.3
308.15 K, x1 = 0.3 | 996.652 ± 0.23 | 1448.9 ± 1.3
308.15 K, x1 = 0.4 | 998.462 ± 0.23 | 1456.9 ± 1.3
308.15 K, x1 = 0.5 | 1000.2 ± 0.23 | 1464.5 ± 1.3
308.15 K, x1 = 0.6 | 1001.93 ± 0.23 | 1471.4 ± 1.3
308.15 K, x1 = 0.7 | 1003.61 ± 0.23 | 1478.4 ± 1.3
308.15 K, x1 = 0.8 | 1005.25 ± 0.23 | 1483.8 ± 1.3
308.15 K, x1 = 0.9 | 1006.92 ± 0.24 | 1489.5 ± 1.3
308.15 K, x1 = 1 | 1008.61 ± 0.24 | 1494.7 ± 1.3
313.15 K, x1 = 0.1 | 988.976 ± 0.23 | 1417.1 ± 1.3
313.15 K, x1 = 0.2 | 990.951 ± 0.23 | 1426.2 ± 1.3
313.15 K, x1 = 0.3 | 992.775 ± 0.23 | 1433.8 ± 1.3
313.15 K, x1 = 0.4 | 994.579 ± 0.23 | 1441.5 ± 1.3
313.15 K, x1 = 0.5 | 996.32 ± 0.23 | 1449 ± 1.3
313.15 K, x1 = 0.6 | 998.053 ± 0.23 | 1455.8 ± 1.3
313.15 K, x1 = 0.7 | 999.73 ± 0.23 | 1462.3 ± 1.3
313.15 K, x1 = 0.8 | 1001.39 ± 0.23 | 1468.1 ± 1.3
313.15 K, x1 = 0.9 | 1003.09 ± 0.23 | 1473.8 ± 1.3
313.15 K, x1 = 1 | 1004.75 ± 0.23 | 1479.2 ± 1.3
318.15 K, x1 = 0.1 | 985.093 ± 0.23 | 1402.3 ± 1.2
318.15 K, x1 = 0.2 | 987.058 ± 0.23 | 1411.3 ± 1.3
318.15 K, x1 = 0.3 | 988.872 ± 0.23 | 1418.7 ± 1.3
318.15 K, x1 = 0.4 | 990.674 ± 0.23 | 1426.3 ± 1.3
318.15 K, x1 = 0.5 | 992.412 ± 0.23 | 1433.5 ± 1.3
318.15 K, x1 = 0.6 | 994.121 ± 0.23 | 1440.5 ± 1.3
318.15 K, x1 = 0.7 | 995.794 ± 0.23 | 1446.4 ± 1.3
318.15 K, x1 = 0.8 | 997.515 ± 0.23 | 1452.4 ± 1.3
318.15 K, x1 = 0.9 | 999.245 ± 0.23 | 1458.1 ± 1.3
318.15 K, x1 = 1 | 1000.93 ± 0.23 | 1463.2 ± 1.3
323.15 K, x1 = 0.1 | 981.261 ± 0.23 | 1388.2 ± 1.2
323.15 K, x1 = 0.2 | 983.126 ± 0.23 | 1396 ± 1.3
323.15 K, x1 = 0.3 | 984.949 ± 0.23 | 1403.8 ± 1.3
323.15 K, x1 = 0.4 | 986.752 ± 0.23 | 1411.3 ± 1.3
323.15 K, x1 = 0.5 | 988.495 ± 0.23 | 1418.6 ± 1.3
323.15 K, x1 = 0.6 | 990.215 ± 0.23 | 1425.2 ± 1.3
323.15 K, x1 = 0.7 | 991.945 ± 0.23 | 1431.3 ± 1.3
323.15 K, x1 = 0.8 | 993.644 ± 0.23 | 1437.1 ± 1.3
323.15 K, x1 = 0.9 | 995.386 ± 0.23 | 1442.8 ± 1.3
323.15 K, x1 = 1 | 997.075 ± 0.23 | 1447.7 ± 1.3
